The values that follow come from patent publication US20230295200A1 (REGENTS OF THE UNIVERSITY OF MICHIGAN, priority 2022, published 2023).

Assay [1] addresses T1, STAT5A (Homo sapiens, UniProt P42229).
T1 sequence (P42229 1-794): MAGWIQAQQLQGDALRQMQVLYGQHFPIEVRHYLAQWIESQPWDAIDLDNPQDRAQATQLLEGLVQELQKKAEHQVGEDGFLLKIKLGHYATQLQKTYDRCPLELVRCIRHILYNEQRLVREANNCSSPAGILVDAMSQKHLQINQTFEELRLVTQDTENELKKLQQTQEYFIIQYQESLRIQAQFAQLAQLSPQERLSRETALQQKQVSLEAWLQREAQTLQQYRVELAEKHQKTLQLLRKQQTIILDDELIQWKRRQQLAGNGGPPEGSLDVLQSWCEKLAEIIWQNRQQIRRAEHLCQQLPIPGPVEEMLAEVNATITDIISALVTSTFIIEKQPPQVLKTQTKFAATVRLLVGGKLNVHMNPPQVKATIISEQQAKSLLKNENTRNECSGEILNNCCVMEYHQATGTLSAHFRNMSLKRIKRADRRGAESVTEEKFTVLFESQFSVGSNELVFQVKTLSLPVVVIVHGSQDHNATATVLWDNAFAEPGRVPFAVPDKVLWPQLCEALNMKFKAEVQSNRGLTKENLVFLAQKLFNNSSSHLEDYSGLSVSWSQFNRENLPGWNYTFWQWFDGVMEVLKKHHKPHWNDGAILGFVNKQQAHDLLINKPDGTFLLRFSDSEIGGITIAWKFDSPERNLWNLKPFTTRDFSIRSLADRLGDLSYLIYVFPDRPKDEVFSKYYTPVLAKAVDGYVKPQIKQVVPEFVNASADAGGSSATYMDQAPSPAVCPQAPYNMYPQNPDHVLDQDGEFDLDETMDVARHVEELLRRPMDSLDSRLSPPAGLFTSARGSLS
As to the kind of experiment: Fluorescence polarization (FP) binding assay, STAT5A. To be noted: FP competition, 5 nM fluorescein-labeled tracer, 200 nM protein, PBS pH7.4. The method in brief: (§1)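 Tracer (fluorescein-labeled, 5 nM) was mixed with 200 nM STAT5 and/or STAT6 in PBS pH 7.4 plus 0.01% BGG, 0.01% Tween-20, 2 mM DTT. After 15 min shaking and 1 h at room temperature to equilibrium, polarization was measured and constants derived by nonlinear fitting.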
Background: Fluorescence polarisation rises when a labelled molecule tumbles more slowly, as on binding a larger partner.

In assay [2] the target is T2, STAT6 protein (Homo sapiens, UniProt P42226).
T2 sequence (P42226 1-847): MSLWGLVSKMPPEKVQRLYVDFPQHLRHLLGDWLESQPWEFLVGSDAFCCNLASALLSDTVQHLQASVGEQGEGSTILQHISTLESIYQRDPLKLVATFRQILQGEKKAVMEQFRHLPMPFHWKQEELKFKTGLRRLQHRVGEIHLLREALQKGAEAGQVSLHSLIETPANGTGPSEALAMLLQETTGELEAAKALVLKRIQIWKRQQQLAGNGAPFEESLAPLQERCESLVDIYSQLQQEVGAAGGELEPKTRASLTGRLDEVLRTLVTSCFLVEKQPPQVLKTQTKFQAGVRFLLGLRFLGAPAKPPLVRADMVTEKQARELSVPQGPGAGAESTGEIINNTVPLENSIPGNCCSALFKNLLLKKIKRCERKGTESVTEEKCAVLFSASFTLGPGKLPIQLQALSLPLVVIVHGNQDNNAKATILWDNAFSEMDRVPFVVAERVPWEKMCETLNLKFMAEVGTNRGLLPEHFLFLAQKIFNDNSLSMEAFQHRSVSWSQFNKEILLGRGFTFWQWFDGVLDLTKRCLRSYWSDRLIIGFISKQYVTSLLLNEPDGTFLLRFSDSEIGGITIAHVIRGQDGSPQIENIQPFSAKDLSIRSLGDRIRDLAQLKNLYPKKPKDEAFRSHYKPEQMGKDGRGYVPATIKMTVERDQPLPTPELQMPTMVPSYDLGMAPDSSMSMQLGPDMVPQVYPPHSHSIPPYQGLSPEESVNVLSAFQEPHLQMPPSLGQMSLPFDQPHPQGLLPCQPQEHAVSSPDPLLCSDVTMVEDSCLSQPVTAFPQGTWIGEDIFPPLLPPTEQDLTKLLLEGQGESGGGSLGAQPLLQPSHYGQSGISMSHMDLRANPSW
As to the kind of experiment: Fluorescence polarization (FP) binding assay, STAT6. Particulars: FP competition, 5 nM fluorescein-labeled tracer, 200 nM protein, PBS pH7.4; read-out: Binding STAT6. The method in brief:
as §1

Bounds are passed on as bounds.

Regarding `CC(=O)N1CC[C@H]2CC[C@@H](C(=O)NC(c3ccccc3)c3ccccc3)N2C(=O)[C@@H](NC(=O)c2cc3cc(C(F)(F)P(=O)(O)O)ccc3[nH]2)C1` [Compound 3, ((2-(((5S,8S,10aR)-3-acetyl-8-(benzhydrylcarbamoyl)-6-oxodecahydropyrrolo[1,2-a][1,5]diazocin-5-yl)carbamoyl)-1H-indol-5-yl)difluoromethyl)phosphonic acid], the Ki in assay [1] is greater than 10 µM; in assay [2], 1 to 10 µM.

On to `CC(=O)N1CC[C@H]2CC[C@@H](C(=O)NC(c3ccccc3)c3ccccc3)N2C(=O)[C@@H](NC(=O)/C=C/c2ccc(C(F)(F)P(=O)(O)O)cc2)C1` [Compound 5, ((4-((E)-3-(((5S,8S,10aR)-3-acetyl-8-(benzhydrylcarbamoyl)-6-oxodecahydropyrrolo[1,2-a][1,5]diazocin-5-yl)amino)-3-oxoprop-1-en-1-yl)phenyl)difluoromethyl)phosphonic acid], for which the Ki in assay [1] and in assay [2] was greater than 10 µM in each case.

In the case of `CC(=O)N1CC[C@H]2CC[C@@H](C(=O)Nc3ccc(I)cc3)N2C(=O)[C@@H](NC(=O)/C=C/c2ccc(C(F)(F)P(=O)(O)O)cc2)C1` [Compound 6, ((4-((E)-3-(((5S,8S,10aR)-3-acetyl-8-((4-iodophenyl)carbamoyl)-6-oxodecahydropyrrolo[1,2-a][1,5]diazocin-5-yl)amino)-3-oxoprop-1-en-1-yl)phenyl)difluoromethyl)phosphonic acid], the figures for the Ki in assay [1] and in assay [2] were greater than 10 µM and 1 to 10 µM, respectively.

Turning to `CC(=O)N1CC[C@H]2CC[C@@H](C(=O)N(C)C(c3ccccc3)c3ccccc3)N2C(=O)[C@@H](NC(=O)c2cc3cc(C(F)(F)P(=O)(O)O)ccc3[nH]2)C1` [Compound 7, ((2-(((5S,8S,10aR)-3-acetyl-8-(benzhydryl(methyl)carbamoyl)-6-oxodecahydropyrrolo[1,2-a][1,5]diazocin-5-yl)carbamoyl)-1H-indol-5-yl)difluoromethyl)phosphonic acid], the Ki in assay [1] is greater than 10 µM; in assay [2] it was 1 to 10 µM.

Take `NCCCC[C@H](NC(=O)/C=C/c1ccc(C(F)(F)P(=O)(O)O)cc1)C(=O)N1CCC[C@H]1C(=O)N1CCc2ccccc2C1` [Compound 8, ((4-((E)-3-(((S)-6-amino-1-oxo-1-((S)-2-(1,2,3,4-tetrahydroisoquinoline-2-carbonyl)pyrrolidin-1-yl)hexan-2-yl)amino)-3-oxoprop-1-en-1-yl)phenyl)difluoromethyl)phosphonic acid]: the Ki in assay [1] and in assay [2] was greater than 10 µM throughout.

For `NCCCC[C@H](NC(=O)c1cc2cc(C(F)(F)P(=O)(O)O)ccc2[nH]1)C(=O)N1CCC[C@H]1C(=O)N1CCc2ccccc2C1` [Compound 9, ((2-(((S)-6-amino-1-oxo-1-((S)-2-(1,2,3,4-tetrahydroisoquinoline-2-carbonyl)pyrrolidin-1-yl)hexan-2-yl)carbamoyl)-1H-indol-5-yl)difluoromethyl)phosphonic acid], the Ki in assay [1] was greater than 10 µM; in assay [2], 1 to 10 µM.

As to `CC(C)(C)[C@H](NC(=O)c1cc2cc(C(F)(F)P(=O)(O)O)ccc2[nH]1)C(=O)N1CCC[C@H]1C(=O)N[C@@H]1CCCc2ccccc21` [Compound 10, ((2-(((S)-3,3-dimethyl-1-oxo-1-((S)-2-(((R)-1,2,3,4-tetrahydronaphthalen-1-yl)carbamoyl)pyrrolidin-1-yl)butan-2-yl)carbamoyl)-1H-indol-5-yl)difluoromethyl)phosphonic acid], the Ki in assay [1] is greater than 10 µM; in assay [2] it was 1 to 10 µM.

Take `CC(C)(C)[C@H](NC(=O)c1cc2cc(C(F)(F)P(=O)(O)O)ccc2[nH]1)C(=O)N1CCC[C@H]1C(=O)N[C@H]1CCCc2ccccc21` [Compound 11, ((2-(((S)-3,3-dimethyl-1-oxo-1-((S)-2-(((S)-1,2,3,4-tetrahydronaphthalen-1-yl)carbamoyl)pyrrolidin-1-yl)butan-2-yl)carbamoyl)-1H-indol-5-yl)difluoromethyl)phosphonic acid]: the Ki is greater than 10 µM in assay [1] and 1 to 10 µM in assay [2].

With `CC(C)(C)[C@H](NC(=O)c1cc2cc(C(F)(F)P(=O)(O)O)ccc2[nH]1)C(=O)N1CCC[C@H]1C(=O)NC1CCc2ccccc21` (stereo partly drawn) [Compound 12, ((2-(((2S)-1-((2S)-2-((2,3-dihydro-1H-inden-1-yl)carbamoyl)pyrrolidin-1-yl)-3,3-dimethyl-1-oxobutan-2-yl)carbamoyl)-1H-indol-5-yl)difluoromethyl)phosphonic acid], the Ki in assay [1] was greater than 10 µM; in assay [2], 1 to 10 µM.

As for `CC(C)(C)[C@H](NC(=O)c1cc2cc(C(F)(F)P(=O)(O)O)ccc2[nH]1)C(=O)N1CCC[C@H]1C(=O)N1CCN(c2ccccc2)CC1` [Compound 13, ((2-(((S)-3,3-dimethyl-1-oxo-1-((S)-2-(4-phenylpiperazine-1-carbonyl)pyrrolidin-1-yl)butan-2-yl)carbamoyl)-1H-indol-5-yl)difluoromethyl)phosphonic acid], the values for the Ki in assay [1] and in assay [2] were greater than 10 µM and 1 to 10 µM, respectively.

Consider `CC(C)(C)[C@H](NC(=O)c1cc2cc(C(F)(F)P(=O)(O)O)ccc2[nH]1)C(=O)N1CCC[C@H]1C(=O)NC(c1ccccc1)c1ccccc1` [Compound 14, ((2-(((S)-1-((S)-2-(benzhydrylcarbamoyl)pyrrolidin-1-yl)-3,3-dimethyl-1-oxobutan-2-yl)carbamoyl)-1H-indol-5-yl)difluoromethyl)phosphonic acid], for which the figures for the Ki in assay [1] and in assay [2] were greater than 10 µM and 1 to 10 µM, respectively.

As to `CC(C)(C)[C@H](NC(=O)c1cc2cc(C(F)(F)P(=O)(O)O)ccc2[nH]1)C(=O)N1CCC[C@H]1C(=O)Nc1ccc2ccccc2c1` [Compound 15, ((2-(((S)-3,3-dimethyl-1-((S)-2-(naphthalen-2-ylcarbamoyl)pyrrolidin-1-yl)-1-oxobutan-2-yl)carbamoyl)-1H-indol-5-yl)difluoromethyl)phosphonic acid], the Ki in assay [1] and in assay [2] was 1 to 10 µM throughout.

In the case of `CC(C)(C)[C@H](NC(=O)c1cc2cc(C(F)(F)P(=O)(O)O)ccc2[nH]1)C(=O)N1CCC[C@H]1C(=O)N[C@@H]1C[C@H]1c1ccccc1` [Compound 16, ((2-(((S)-3,3-dimethyl-1-oxo-1-((S)-2-(((1R,2S)-2-phenylcyclopropyl)carbamoyl)pyrrolidin-1-yl)butan-2-yl)carbamoyl)-1H-indol-5-yl)difluoromethyl)phosphonic acid], the results for the Ki in assay [1] and in assay [2] were greater than 10 µM and 1 to 10 µM, respectively.

With `CC(C)(C)[C@H](NC(=O)c1cc2cc(C(F)(F)P(=O)(O)O)ccc2[nH]1)C(=O)N1CCC[C@H]1c1nc(Cc2ccccc2)cs1` [Compound 17, ((2-(((S)-1-((S)-2-(4-benzylthiazol-2-yl)pyrrolidin-1-yl)-3,3-dimethyl-1-oxobutan-2-yl)carbamoyl)-1H-indol-5-yl)difluoromethyl)phosphonic acid], the Ki in assay [1] and in assay [2] was 1 to 10 µM in each case.

With `CC(C)(C)[C@H](NC(=O)/C=C/c1ccc(C(F)(F)P(=O)(O)O)cc1)C(=O)N1CCC[C@H]1c1nc(Cc2ccccc2)cs1` [Compound 18, ((4-((E)-3-(((S)-1-((S)-2-(4-benzylthiazol-2-yl)pyrrolidin-1-yl)-3,3-dimethyl-1-oxobutan-2-yl)amino)-3-oxoprop-1-en-1-yl)phenyl)difluoromethyl)phosphonic acid], the Ki in assay [1] and in assay [2] was greater than 10 µM each time.
